From ChEMBL document CHEMBL5143705, “Design, synthesis and structure-activity relationship of 4-(1,1,1,3,3,3-hexafluoro-2-hydroxyisoprop-2-yl)phenylsilane derivatives as liver X receptor agonists” (Bioorg Med Chem, 2022)

Tests used:
Format in all cases: cell-based
[1] = target: T1, Oxysterols receptor LXR-alpha (Homo sapiens, UniProt Q13133); assay: Agonist activity against human LXRalpha expressed in human HEK293T cells co-expressing CMX-GAL4N-hLXRalpha incubated for 24 hrs by reporter gene assay
T1 sequence (Q13133 whole entry): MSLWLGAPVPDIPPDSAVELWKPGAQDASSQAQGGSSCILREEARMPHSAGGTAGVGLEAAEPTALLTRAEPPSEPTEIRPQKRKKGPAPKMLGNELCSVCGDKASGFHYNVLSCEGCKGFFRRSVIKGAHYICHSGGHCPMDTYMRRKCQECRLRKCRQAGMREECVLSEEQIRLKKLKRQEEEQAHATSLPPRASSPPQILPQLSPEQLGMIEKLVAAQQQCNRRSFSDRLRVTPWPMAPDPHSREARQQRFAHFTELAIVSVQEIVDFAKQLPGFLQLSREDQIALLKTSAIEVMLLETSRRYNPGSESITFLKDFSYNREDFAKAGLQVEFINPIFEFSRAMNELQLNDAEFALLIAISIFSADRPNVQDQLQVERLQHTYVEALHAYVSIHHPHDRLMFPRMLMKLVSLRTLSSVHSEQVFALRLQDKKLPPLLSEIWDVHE

[2] = target: T2, Oxysterols receptor LXR-beta (Homo sapiens, UniProt P55055); assay: Agonist activity against human LXRbeta expressed in human HEK293T cells co-expressing CMX-GAL4N-hLXRbeta incubated for 24 hrs by reporter gene assay
T2 sequence (P55055 whole entry): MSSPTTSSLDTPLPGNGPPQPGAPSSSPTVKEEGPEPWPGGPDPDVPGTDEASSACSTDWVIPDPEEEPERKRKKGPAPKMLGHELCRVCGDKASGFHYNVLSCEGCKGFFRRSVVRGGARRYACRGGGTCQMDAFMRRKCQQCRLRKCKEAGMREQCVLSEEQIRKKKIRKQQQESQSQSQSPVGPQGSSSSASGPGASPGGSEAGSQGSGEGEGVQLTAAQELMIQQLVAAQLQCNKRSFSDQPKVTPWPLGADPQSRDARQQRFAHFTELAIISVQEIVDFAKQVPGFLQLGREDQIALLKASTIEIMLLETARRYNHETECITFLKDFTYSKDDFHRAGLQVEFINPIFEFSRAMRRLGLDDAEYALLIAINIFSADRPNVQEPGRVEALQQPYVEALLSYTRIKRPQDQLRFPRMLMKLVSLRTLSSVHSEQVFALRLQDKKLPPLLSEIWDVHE

[3] = Toxicity in human HEK293 cells assessed as reduction in cell viability at 10 uM; conditions: hek293, 10 µM
[4] = target: T3, Oxysterols receptor LXR-alpha (Homo sapiens) (UniProt Q13133); assay: Partial agonist activity against human LXRalpha in human HEK293T cells incubated for 24 hrs by reporter gene assay relative to T0901317
T3 sequence (whole entry): T1 sequence (Q13133 whole entry)

[5] = target: T4, Oxysterols receptor LXR-beta (Homo sapiens) (UniProt P55055); assay: Partial agonist activity against human LXRbeta in human HEK293T cells incubated for 24 hrs by reporter gene assay T0901317
T4 sequence (whole entry): T2 sequence (P55055 whole entry)

Row | EC50 [1] | EC50 [2] | Activity [4] | Activity [5] | SMILES | Activity [3]
1 | 580 nM | 510 nM | – | – | C[Si](C)(C)[Si](C)(C)c1ccc(C(O)(C(F)(F)F)C(F)(F)F)cc1 | Non-Toxic
2 | 940 nM | 720 nM | – | – | C[Si](C)(Cc1ccccc1)c1ccc(C(O)(C(F)(F)F)C(F)(F)F)cc1 | Non-Toxic
3 | – | – | – | – | O=S(=O)(c1ccccc1)N(CC(F)(F)F)c1ccc(C(O)(C(F)(F)F)C(F)(F)F)cc1 [T091317] | Non-Toxic
4 | 590 nM | 690 nM | – | – | CC[Si](C)(CC)c1ccc(C(O)(C(F)(F)F)C(F)(F)F)cc1 | Non-Toxic
5 | 3120 nM | 1410 nM | – | – | C[Si](C)(C)c1ccc(C(O)(C(F)(F)F)C(F)(F)F)cc1 | Non-Toxic
6 | 2350 nM | 1700 nM | – | – | CCCC[Si](C)(C)c1ccc(C(O)(C(F)(F)F)C(F)(F)F)cc1 | Non-Toxic
7 | 4450 nM | 3340 nM | – | – | CC(O)[Si](C)(C)c1ccc(C(O)(C(F)(F)F)C(F)(F)F)cc1 (stereo not given) | Non-Toxic
8 | 1130 nM | 650 nM | – | – | CC(C)(C)[Si](C)(C)c1ccc(C(O)(C(F)(F)F)C(F)(F)F)cc1 | Non-Toxic
9 | 500 nM | 450 nM | – | – | C=CC[Si](C)(C)c1ccc(C(O)(C(F)(F)F)C(F)(F)F)cc1 | Non-Toxic
10 | – | – | – | – | CN(c1ccc(C(O)(C(F)(F)F)C(F)(F)F)cc1)S(=O)(=O)c1ccccc1 | Non-Toxic
11 | 1460 nM | 1730 nM | – | – | C[Si](C)(CCO)c1ccc(C(O)(C(F)(F)F)C(F)(F)F)cc1 | Non-Toxic
12 | 620 nM | 530 nM | – | – | CC[Si](CC)(CC)c1ccc(C(O)(C(F)(F)F)C(F)(F)F)cc1 | Non-Toxic
13 | 1430 nM | 740 nM | – | – | C[Si](C)(c1ccc(C(O)(C(F)(F)F)C(F)(F)F)cc1)C1CCCCC1 | Non-Toxic
14 | 2150 nM | 740 nM | – | – | C[Si](C)(c1ccccc1)c1ccc(C(O)(C(F)(F)F)C(F)(F)F)cc1 | Non-Toxic
15 | 4980 nM | 1980 nM | 19% | 27% | OC(c1ccc([Si](Cc2ccccc2)(Cc2ccccc2)Cc2ccccc2)cc1)(C(F)(F)F)C(F)(F)F | Non-Toxic
16 | 430 nM | 590 nM | – | – | CCC[Si](CCC)(CCC)c1ccc(C(O)(C(F)(F)F)C(F)(F)F)cc1 | Non-Toxic
17 | 8500 nM | 5030 nM | – | – | C[Si](O)(c1ccccc1)c1ccc(C(O)(C(F)(F)F)C(F)(F)F)cc1 (stereo not given) | Non-Toxic
18 | 4450 nM | 4030 nM | – | – | C[Si](C)(CCCO)c1ccc(C(O)(C(F)(F)F)C(F)(F)F)cc1 | Non-Toxic
19 | 2060 nM | 1800 nM | – | – | C=C[Si](C)(C)c1ccc(C(O)(C(F)(F)F)C(F)(F)F)cc1 | Non-Toxic
